The results in this text go back to PubChem BioAssay AID1963440 (Molecular Pharmacology Branch, DTP, NCI, 2024).

“And” between values parts separate entries of the source, which are not always exact repeats. Equal values may be shown once.

For this assay, the system named is NCI-H1417 complex spheroids, growth % test/control. In words: Anticancer human tumor NCI-H1417 cell line growth inhibition [Asc].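 As to all read-outs here: spheroids exposed to compounds for 7 days.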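 As to viability, T/C: 100% = DMSO vehicle control wells.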 As to conditions: for viability, T/C: stronger effect = lower value. Put shortly: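 Concentration series start at each agent's clinical Cmax, or at 10 microM when none is established, and drop in half-log steps; agents are applied alone or together to complex spheroids built with HUVEC and hMSC.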

Setting [1] is: curve of first compound, second compound 0.1 µM.
The mark [2] stands for this setting: curve of first compound, second compound 0.316 µM.
The mark [3] stands for this setting: curve of first compound, second compound 1 µM.
Where [4] appears, read: curve of first compound, second compound 3.16 µM.
[5] abbreviates: curve of first compound, second compound 10 µM.
Setting [6] is: second compound 0.1 µM, first compound 0.00316 µM.
[7] abbreviates: second compound 0.1 µM, first compound 0.01 µM.
[8] abbreviates: second compound 0.1 µM, first compound 0.0316 µM.
Where [9] appears, read: second compound 0.1 µM, first compound 0.1 µM.
Setting [10] is: second compound 0.316 µM, first compound 0.00316 µM.
[11] abbreviates: second compound 0.316 µM, first compound 0.01 µM.
The mark [12] stands for this setting: second compound 0.316 µM, first compound 0.0316 µM.
Setting [13] is: second compound 0.316 µM, first compound 0.1 µM.
The mark [14] stands for this setting: second compound 1 µM, first compound 0.00316 µM.
[15] abbreviates: second compound 1 µM, first compound 0.01 µM.
[16] abbreviates: second compound 1 µM, first compound 0.0316 µM.
Where [17] appears, read: second compound 1 µM, first compound 0.1 µM.

For `CCN1CCN(Cc2ccc(Nc3ncc(F)c(-c4cc(F)c5nc(C)n(C(C)C)c5c4)n3)nc2)CC1` + Cc1c(S(C)(=O)=O)c(-c2cc(F)cc(N3CCN(c4ccc(NS(=O)(=O)c5ccc(NC(CCN6CCC(C(=O)OCCCP(=O)(O)O)CC6)CSc6ccccc6)c(S(=O)(=O)C(F)(F)F)c5)cc4)CC3)c2)c(-c2ccc(Cl)cc2)n1C(C)C, the IC50 runs as follows: under setting [1], > 1 µM; under setting [2], < 0.00316 µM; under setting [3], < 0.00316 µM; under setting [4], < 0.00316 µM; under setting [5], < 0.00316 µM. The viability, T/C under setting [6] is 88.6%; the viability, T/C under setting [7] is 83.6%; the viability, T/C under setting [8] was 82.2%; the viability, T/C under setting [9] is 69.5%; the viability, T/C (second compound 0.1 µM, first compound 0.316 µM) was 66.6%; the viability, T/C (second compound 0.1 µM, first compound 1 µM) is 58.1%. Also, the viability, T/C under setting [10] was 47.8%; the viability, T/C under setting [11] is 45.8%; the viability, T/C under setting [12] was 44.7%; the viability, T/C under setting [13] was 28.9%; the viability, T/C (second compound 0.316 µM, first compound 0.316 µM) is 24%; the viability, T/C (second compound 0.316 µM, first compound 1 µM) was 21%. Besides, the viability, T/C reads like this: under setting [14], 14.4%; under setting [15], 12%; under setting [16], 10.6%; under setting [17], 7.35%; (second compound 1 µM, first compound 0.316 µM) 6.95%; (second compound 1 µM, first compound 1 µM) 2.98%. Moreover, the viability, T/C is, setting by setting: (second compound 3.16 µM, first compound 0.00316 µM) 2.92%; (second compound 3.16 µM, first compound 0.01 µM) 2.69%; (second compound 3.16 µM, first compound 0.0316 µM) 2.77%; (second compound 3.16 µM, first compound 0.1 µM) 2.85%; (second compound 3.16 µM, first compound 0.316 µM) 2.68%; (second compound 3.16 µM, first compound 1 µM) 3.02%. Besides, the viability, T/C by setting is: (second compound 10 µM, first compound 0.00316 µM) 2.2%; (second compound 10 µM, first compound 0.01 µM) 2.36%; (second compound 10 µM, first compound 0.0316 µM) 2.21%; (second compound 10 µM, first compound 0.1 µM) 1.72%; (second compound 10 µM, first compound 0.316 µM) 2.26%; (second compound 10 µM, first compound 1 µM) 2.79%.
Regarding `NC1CCC(NC2CC2c2ccccc2)CC1` (centres undefined), the viability, T/C runs as follows: (compound 0.000316 µM) 94.2% and 90.8% and 94.6%; (compound 0.001 µM) 91.8% and 89.6% and 93.2%; (compound 0.00316 µM) 89.5% and 86.4% and 89.2%; (compound 0.01 µM) 83.2% and 78.4% and 87.9%; (compound 0.0316 µM) 89% and 84.6% and 88.3%; (compound 0.1 µM) 82.3% and 78.4% and 97.6%. Besides, under “curve of compound”, the IC50 is > 0.1 µM.
For `O=C(c1ccc(F)c(F)c1Nc1ccc(I)cc1F)N1CC(O)([C@@H]2CCCCN2)C1`, the viability, T/C is 89.8% and 105% and 96.8% (compound 0.00316 µM); 99.2% and 107% and 97.3% (compound 0.01 µM); 84.4% and 103% and 97.9% (compound 0.0316 µM); 89% and 98.1% and 116% (compound 0.1 µM); 88.8% and 94.5% and 97.2% (compound 0.316 µM); 65.3% and 83.7% and 98.2% (compound 1 µM). Besides, the IC50 (curve of compound) is > 1 µM.
With `CCN1C(C(=O)NC23CCC(C(=O)O)(CC2)CC3)C(c2cccc(Cl)c2F)C2(C(=O)Nc3cc(Cl)ccc32)C12CCCCC2` (centres undefined) + Cc1c(S(C)(=O)=O)c(-c2cc(F)cc(N3CCN(c4ccc(NS(=O)(=O)c5ccc(NC(CCN6CCC(C(=O)OCCCP(=O)(O)O)CC6)CSc6ccccc6)c(S(=O)(=O)C(F)(F)F)c5)cc4)CC3)c2)c(-c2ccc(Cl)cc2)n1C(C)C, the IC50 reads like this: under setting [1], 0.584 µM; under setting [2], < 0.00949 µM; under setting [3], < 0.00949 µM; under setting [4], < 0.00949 µM; under setting [5], < 0.00949 µM. Also, the viability, T/C reads like this: (second compound 0.1 µM, first compound 0.00949 µM) 78.9%; (second compound 0.1 µM, first compound 0.03 µM) 81.2%; (second compound 0.1 µM, first compound 0.0949 µM) 67.5%; (second compound 0.1 µM, first compound 0.3 µM) 58.7%; (second compound 0.1 µM, first compound 0.949 µM) 44.9%; (second compound 0.1 µM, first compound 3 µM) 16.4%. Moreover, the viability, T/C is, setting by setting: (second compound 0.316 µM, first compound 0.00949 µM) 35.7%; (second compound 0.316 µM, first compound 0.03 µM) 33.3%; (second compound 0.316 µM, first compound 0.0949 µM) 22.1%; (second compound 0.316 µM, first compound 0.3 µM) 16.4%; (second compound 0.316 µM, first compound 0.949 µM) 11.8%; (second compound 0.316 µM, first compound 3 µM) 1.6%. The viability, T/C by setting is: (second compound 1 µM, first compound 0.00949 µM) 11.4%; (second compound 1 µM, first compound 0.03 µM) 6.74%; (second compound 1 µM, first compound 0.0949 µM) 4.76%; (second compound 1 µM, first compound 0.3 µM) 2.15%; (second compound 1 µM, first compound 0.949 µM) 1.25%; (second compound 1 µM, first compound 3 µM) 0.65%. Besides, the viability, T/C was 2.36% (second compound 3.16 µM, first compound 0.00949 µM); 2.41% (second compound 3.16 µM, first compound 0.03 µM); 1.59% (second compound 3.16 µM, first compound 0.0949 µM); 1.03% (second compound 3.16 µM, first compound 0.3 µM); 0.63% (second compound 3.16 µM, first compound 0.949 µM); 0.39% (second compound 3.16 µM, first compound 3 µM). The viability, T/C is 1.88% (second compound 10 µM, first compound 0.00949 µM); 2.25% (second compound 10 µM, first compound 0.03 µM); 2.08% (second compound 10 µM, first compound 0.0949 µM); 1.02% (second compound 10 µM, first compound 0.3 µM); 0.65% (second compound 10 µM, first compound 0.949 µM); 0.29% (second compound 10 µM, first compound 3 µM).
Consider `NC1CCC(NC2CC2c2ccccc2)CC1` (centres undefined) + CNC(C)C(=O)NC1CN(S(=O)(=O)c2cccc(S(=O)(=O)N3CCC4CCC(C(=O)NC(c5ccccc5)c5ccccc5)N4C(=O)C(NC(=O)C(C)NC)C3)c2)CCC2CCC(C(=O)NC(c3ccccc3)c3ccccc3)N2C1=O, for which the IC50 (curve of first compound, second compound 0.01 µM) was > 0.1 µM; the IC50 (curve of first compound, second compound 0.0316 µM) was > 0.1 µM; the IC50 under setting [1] was > 0.1 µM; the IC50 under setting [2] was > 0.1 µM; the IC50 under setting [3] is > 0.1 µM. The viability, T/C is 93.4% (second compound 0.01 µM, first compound 0.000316 µM); 92.8% (second compound 0.01 µM, first compound 0.001 µM); 88.7% (second compound 0.01 µM, first compound 0.00316 µM); 89.4% (second compound 0.01 µM, first compound 0.01 µM); 84.2% (second compound 0.01 µM, first compound 0.0316 µM); 91% (second compound 0.01 µM, first compound 0.1 µM). Besides, the viability, T/C runs as follows: (second compound 0.0316 µM, first compound 0.000316 µM) 106%; (second compound 0.0316 µM, first compound 0.001 µM) 80.6%; (second compound 0.0316 µM, first compound 0.00316 µM) 91.8%; (second compound 0.0316 µM, first compound 0.01 µM) 81.8%; (second compound 0.0316 µM, first compound 0.0316 µM) 80.2%; (second compound 0.0316 µM, first compound 0.1 µM) 80.4%. For the same compound, the viability, T/C is, setting by setting: (second compound 0.1 µM, first compound 0.000316 µM) 84.8%; (second compound 0.1 µM, first compound 0.001 µM) 91%; under setting [6], 85.5%; under setting [7], 81.4%; under setting [8], 82.9%; under setting [9], 89.7%. In addition, the viability, T/C by setting is: (second compound 0.316 µM, first compound 0.000316 µM) 87.6%; (second compound 0.316 µM, first compound 0.001 µM) 99.3%; under setting [10], 82%; under setting [11], 80.8%; under setting [12], 88.1%; under setting [13], 105%. Moreover, the viability, T/C reads like this: (second compound 1 µM, first compound 0.000316 µM) 97.2%; (second compound 1 µM, first compound 0.001 µM) 88.5%; under setting [14], 89.7%; under setting [15], 88%; under setting [16], 84%; under setting [17], 90.2%.

For orientation: IC50 means the concentration that gives 50% inhibition. Broadly, the viability, T/C is the ratio of treated to control.
